Results on eleven compounds are retold here after patent US9441016B2, “Complete genome sequence of the methanogen Methanobrevibacter ruminantium” (Pastoral Greenhouse Gas Research Ltd., priority 2009, dated 2016).

For assay [1], the system named is Mbb. ruminantium A1Ao ATP synthase. The experiment in a line: ATP hydrolysis by A1Ao ATP synthase with inhibitors (inorganic phosphate assay). The class given is biochemical, Methanobrevibacter ruminantium. The conditions noted are these: in high concentrations. The text has this: Two enzyme preparations were studied. Purified ATP synthase from BL21 and recombinant enzyme expressed in E. coli DK8 membranes. Purified […] ATP synthase was examined for ATPase activity using the inorganic phosphate assay. […] TBT is a well characterized Fo and Ao channel inhibitor of ATP synthases. To examine the coupling ion used by the Mbb. ruminantium […] ATP synthase, the effect of amiloride, a known Na^+-coupled V-type ATPase and Na^+ channel inhibitor was also examined. […] E. coli DK8 (Δatp) inverted membranes containing the recombinant […]-ATPase were used to determine the effects of the inhibitors TBT (200 μM) and DCCD (250 μM) at different pH values. ATPase activity was measured in presence of 130 mM Na^+ (FIG. 30A) and in absence of Na^+ (FIG. 30B). After preincubation with the inhibitor for 20 min at room temperature ([…]), the reaction was started at 39° C. by addition of Na2-ATP or Tris-ATP to a final concentration of 2.5 mM. 0.5 mg inverted membrane vesicles was used in each end-point assay. […] FIGS. 30A and 30B). […] FIG. 30C). Amiloride inhibition of ATP hydrolysis of the Mbb. ruminantium […] ATP synthase was evaluated next. […] FIG. 30D). […] FIG. 31A). Amiloride inhibition of ATP hydrolysis of purified recombinant Mbb. ruminantium […] ATP synthase was further tested in DK8 and native membranes. […] FIG. 31B).

Assay [2] relates to M. ruminantium M1. The experiment in a line: Effect of the lytic enzyme PeiR on M1 growth in vitro (culture density, methane). The class given is cell-based, Methanobrevibacter ruminantium. On the procedure:
M1 was grown in medium RM02 in anaerobic culture tubes (16 mm internal diameter, 18 mm outer diameter, 150 mm long; Bellco Glass, Vineland, N.J., USA), essentially as described by Balch and Wolfe, 1976. The mineral salts base of RM02 contained (per liter of medium): 1.4 g of KH2PO4, 0.6 g of (NH4)2SO4, 1.5 g of KCl, 1 ml trace element solution […] et al., 1983), 1 ml of selenite/tungstate solution ([…] and […], 1984) and 4 drops of 0.1% (w/v) resazurin solution. This solution was mixed and then boiled under O2-free 100% CO2, before being cooled in an ice bath while it was bubbled with 100% CO2. Once the medium was cool, 4.2 g of NaHCO3 and 0.5 g of L-cysteine.HCl.H2O was added per liter. […] In the experiments testing the effects of PeiR addition, the culture densities were mathematically normalised to an OD600 of 0.1 at the time the additions were made, and all other readings corrected by the same ratio. […] Methane was measured by gas chromatography, taking a 0.3 ml sample from the culture headspace, at the pressure in the culture tube, and injecting it into an Aerograph 660 (Varian Associates, Palo Alto, Calif., USA) fitted with a Porapak Q 80/100 mesh column (Waters Corporation, Milford, Mass., USA) and a thermal conductivity detector operated at 100° C. […]

The target of assay [3] is 3-hydroxy-3-methylglutaryl-CoA reductase (HMGR) (Methanobrevibacter ruminantium, UniProt D3E332). The experiment in a line: HMGR activity assay measuring oxidation of NADPH. The conditions noted are these: for Km: substrate of HMGR, assays at 37° C, pH 6.5. The class given is biochemical.
In assay [4] the test system is M. ruminantium M1. The experiment in a line: Stimulation of growth of M1 by alcohols. The conditions noted are these: for culture density (OD600 nm): M1 grown on H2, compared to H2 alone. Type of assay: cell-based, Methanobrevibacter ruminantium. On the procedure:
M1 was grown in medium RM02 in anaerobic culture tubes (16 mm internal diameter, 18 mm outer diameter, 150 mm long; Bellco Glass, Vineland, N.J., USA), essentially as described by Balch and Wolfe, 1976. The mineral salts base of RM02 contained (per liter of medium): 1.4 g of KH2PO4, 0.6 g of (NH4)2SO4, 1.5 g of KCl, 1 ml trace element solution […] et al., 1983), 1 ml of selenite/tungstate solution ([…] and […], 1984) and 4 drops of 0.1% (w/v) resazurin solution. This solution was mixed and then boiled under O2-free 100% CO2, before being cooled in an ice bath while it was bubbled with 100% CO2. Once the medium was cool, 4.2 g of NaHCO3 and 0.5 g of L-cysteine.HCl.H2O was added per liter. The medium was dispensed into the culture tubes while being gassed with 100% CO2, at 9.5 ml of medium per tube, and the tubes sealed with blue butyl septum stoppers and aluminium seals (Bellco), with a headspace of 100% CO2. These tubes were sterilised by autoclaving for 20 min at 121° C. Before use, the tubes were stored in the dark for at least 24 h. Sodium acetate (20 mM final conc.), sodium formate (60 mM final conc.), coenzyme M (10 μM final conc.), and vitamin-supplemented clarified rumen fluid were added to sterile media, before inoculation with 0.5 ml of an actively growing culture of M. ruminantium, then gassed with H2 plus CO2 (4:1) to 180 kPa overpressure. In some experiments, the formate was omitted, and alcohols were added, as noted in the experimental descriptions accompanying the results. The culture tubes were incubated on their sides, at 39° C. in the dark, on a platform shaken at 200 rpm. Growth of M1 was followed by measuring the culture density at 600 nm by inserting the tubes directly into an Ultrospec 1100 pro UV/Vis spectrophotometer (Amersham Biosciences, Little Chalfont, Buckinghamshire, UK). […] In the experiments testing the effects of PeiR addition, the culture densities were mathematically normalised to an OD600 of 0.1 at the time the additions were made, and all other readings corrected by the same ratio. This was done to remove the effect of lack of absolute synchronicity between cultures, a common phenomenon when culturing methanogens. This normalisation was not done for experiments testing the utilisation of alcohols. Methane was measured by gas chromatography, taking a 0.3 ml sample from the culture headspace, at the pressure in the culture tube, and injecting it into an Aerograph 660 (Varian Associates, Palo Alto, Calif., USA) fitted with a Porapak Q 80/100 mesh column (Waters Corporation, Milford, Mass., USA) and a thermal conductivity detector operated at 100° C. The column was operated at room temperature with N2 as the carrier gas at 12 cm^3/min.

As for `N=C(N)NC(=O)c1nc(Cl)c(N)nc1N` [amiloride], in assay [1], the “ATP hydrolysis activity, sensitivity to inhibitor” value is listed as “sensitive”.
As to `ClC(Cl)Cl` [Chloroform], the methane yield result in the assay with M. ruminantium M1 [2] (0.1 ml added to 10 ml culture at mid-exponential phase) is recorded as “similarly reduced methane yield”. Moreover, the culture density result in the assay with M. ruminantium M1 [2] (0.1 ml added to 10 ml culture, compared with PeiR) is “decrease in culture density was less”.
In the case of `CC(C)(CO[P@@](=O)(O)O[P@@](=O)(O)OC[C@H]1O[C@@H](n2cnc3c(N)ncnc32)[C@H](O)[C@@H]1OP(=O)(O)O)[C@@H](O)C(=O)NCCC(=O)NCCSC(=O)C[C@@](C)(O)CC(=O)O` [HMG-CoA], the Km in assay [3] stood at 12.4 ± 1.83 µM.
Take `C(=NC1CCCCC1)=NC1CCCCC1` [DCCD]: in assay [1], the “ATP hydrolysis activity, sensitivity to inhibitor” value is reported as “sensitive”.
On to `CCO` [ethanol], for which the growth result with M. ruminantium M1 [4] (20 mM, M1 grown on H2) is listed as “some inhibition of growth”. Besides, the “culture density (OD600 nm)” value in the assay on M. ruminantium M1 [4] (5 or 10 mM) is on record as “increase in culture density”. Further, in the assay with M. ruminantium M1 [4] (no H2 added), the growth result is reported as “No growth occurred” and the methane formation result is recorded as “no methane was formed”.
Take `NC(=O)C1=CN([C@@H]2O[C@H](COP(=O)(O)OP(=O)(O)OC[C@H]3O[C@@H](n4cnc5c(N)ncnc54)[C@H](OP(=O)(O)O)[C@@H]3O)[C@@H](O)[C@H]2O)C=CC1` [NADPH]: the Michaelis-Menten constant (Km) in assay [3] is 165 ± 35 µM.
For the compound `CC[C@H](C)C(=O)O[C@H]1C[C@@H](C)C=C2C=C[C@H](C)[C@H](CC[C@@H]3C[C@@H](O)CC(=O)O3)[C@H]21` [lovastatin, reference compound], in assay [3], affinity was put at a Ki of 8.5 ± 1.1 µM.
Turning to `CO` [methanol], the “culture density (OD600 nm)” value in the assay with M. ruminantium M1 [4] (20 mM) is listed as “increase in culture density”. Besides, in the assay with M. ruminantium M1 [4] (no H2 added), the growth entry is given as “No growth occurred” and the methane formation result is “no methane was formed”.
In turn, `CCC(C)(C)C(=O)O[C@H]1C[C@@H](C)C=C2C=C[C@H](C)[C@H](CC[C@@H]3C[C@@H](O)CC(=O)O3)[C@H]21` [simvastatin, reference compound] came in with an inhibition constant Ki in assay [3] of 3.7 ± 0.65 µM.
For `CC(C)O` [isopropanol], the stimulation of growth result in the assay on M. ruminantium M1 [4] (5 to 20 mM, M1 grown on H2) is “no stimulation”. Besides, in the assay with M. ruminantium M1 [4] (no H2 added), the growth entry is reported as “No growth occurred” and the methane formation entry was “no methane was formed”.
Regarding `CCC[CH2][Sn]([CH2]CCC)[CH2]CCC` [TBT, tributylin], the “ATP hydrolysis activity, sensitivity to inhibitor” value in assay [1] was “sensitive”.
